Data: EPA's ToxValDB 9.5
Values joined by “and” are separate entries in the source; they are usually repeats but may differ in a detail not shown here. Equal values may be shown once.

What was measured:
Rattus norvegicus [1] = settings: for LD50 / LC50: acute
Rattus norvegicus [2] = settings: oral, gavage, Sprague-Dawley
Rattus norvegicus [3] = settings: for LOEL / NOEL: Hershberger, gavage; for LEL: uterotrophic, Active
Rattus norvegicus [4] = settings: oral
[5] = reproduction developmental, duration: 7 days, F, generation: P0, P0: Developmental: Whole Body: Litter Size + P0: Developmental: Whole Body: Male Pups per Pups Sexed
[6] = short-term, duration: 21 days, M, Endocrine: Multi-Organ: Estradiol, Serum + Endocrine: Multi-Organ: Follicular Stimulating Hormone (FSH), Serum + Endocrine: Multi-Organ: …
[7] = short-term, duration: 21 days, M, Endocrine: Multi-Organ: Estradiol, Serum + Endocrine: Multi-Organ: Follicular Stimulating Hormone (FSH), Serum + Metabolic: Multi-Organ: …
[8] = short-term, duration: 21 days, M, Endocrine: Multi-Organ: Testosterone (T), Serum + Reproductive: Epididymis: Epididymis Weight, Absolute + Reproductive: Testis: Testis …
[9] = duration: 10 days, oral, Wistar, active + Negative + Antiandrogenic + anti-androgenic
[10] = duration: 7 days, oral, Sprague-Dawley, active + Antiandrogenic + anti-androgenic
[11] = duration: 3 days, injection, subcutaneous
[12] = repeat dose other, inhalation, B6C3F1

CCCCCCCCCCCCCCCCCCOC(=O)CCSCCC(=O)OCCCCCCCCCCCCCCCCCC [Distearyl thiodipropionate]
LD50 (Mus musculus; acute, injection, Intraperitoneal): > 2000 mg/kg
LD50 (Mus musculus; acute, oral): > 2000 mg/kg
LD50 (Rattus norvegicus [1]; dermal): > 2000 mg/kg
LD50 (Rattus norvegicus [1]; oral): > 5000 mg/kg

CCN(O)CC [N,N-Diethylhydroxylamine]
LD50 (Mus musculus; acute, oral): 2150 mg/kg
LC50 (Rattus norvegicus [1]; inhalation, Sprague-Dawley): 11400 mg/m3
LD50 (Rattus norvegicus [1]; oral, gavage, WBS/W): 2190 mg/kg
NOAEL (Rattus norvegicus [1]; reproduction developmental, oral, gavage, F, Sprague-Dawley): 250 mg/kg-day
NOAEL (Rattus norvegicus [1]; short-term, duration: 5 days, inhalation, Sprague-Dawley): 547 mg/m3
NOAEL (Rattus norvegicus [1]; short-term, duration: 28 days, inhalation, Sprague-Dawley): 547 mg/m3

O=C(O)C(F)(F)C(F)(F)C(F)(F)C(F)(F)C(F)(F)C(F)(F)C(F)(F)C(F)(F)C(F)(F)C(F)(F)C(F)(F)C(F)(F)F [Perfluorotridecanoic acid]
NOAEL (Rattus norvegicus [2]; developmental, duration: 7 days, M, generation: F1, F1: Developmental: Testis: Fetal Leydig cell number + F1: Developmental: Trunk: Anogenital Distance + F1: Developmental: Whole Body: Pup …): 5 mg/kg-day
LOAEL (Rattus norvegicus [2]; [5]): 10 mg/kg-day
NOAEL (Rattus norvegicus [2]; [5]): 5 mg/kg-day
LOAEL (Rattus norvegicus [2]; reproduction developmental, duration: 7 days, F, generation: P0, P0: Developmental: Whole Body: Litter Size + P0: Developmental: Whole Body: Male Pups per Pups Sexed + P0: Reproductive: Whole Body: Birth …): 1 mg/kg-day
LOAEL (Rattus norvegicus [2]; reproduction developmental, duration: 7 days, F, generation: P0, P0: Reproductive: Whole Body: Birth rate): 1 mg/kg-day
NOAEL (Rattus norvegicus [2]; reproduction developmental, duration: 7 days, F, generation: P0, P0: Whole Body: Whole Body: Clinical Observations, Unspecified + P0: Whole Body: Whole Body: Maternal Body Weight): 10 mg/kg-day
LOAEL (Rattus norvegicus [2]; reproduction developmental, duration: 7 days, M, generation: F1, F1: Endocrine: Multi-Organ: Testosterone (T), Serum): 1 mg/kg-day
LOAEL (Rattus norvegicus [2]; [6]): 5 mg/kg-day
NOAEL (Rattus norvegicus [2]; [6]): 1 mg/kg-day
LOAEL (Rattus norvegicus [2]; [7]): 10 mg/kg-day
NOAEL (Rattus norvegicus [2]; [7]): 5 mg/kg-day
LOAEL (Rattus norvegicus [2]; [8]): 5 mg/kg-day
NOAEL (Rattus norvegicus [2]; [8]): 1 mg/kg-day
NOAEL (Rattus norvegicus [2]; short-term, duration: 21 days, M, Whole Body: Whole Body: Body Weight Change + Whole Body: Whole Body: Body Weight, Absolute + Whole Body: Whole Body: Clinical Observation …): 10 mg/kg-day

CCCCCOC(=O)c1ccccc1C(=O)OCCCCC [Dipentyl phthalate]
LOEL (Rattus norvegicus [3]; [9]): 1000 mg/kg-day
NOEL (Rattus norvegicus [3]; [9]): 200 mg/kg-day
NOEL (Rattus norvegicus [2]; developmental, M, generation: F1, F1: Testosterone (Testes) production): 50 mg/kg-day

[Cl-].[Cl-].[Co+2] [Cobalt chloride]
NOAEL (Mus musculus; developmental, duration: 5 days, oral, gavage, ICR): 180 mg/kg-day
LOAEL (Rattus norvegicus [1]; chronic, duration: 150 days, oral, gavage): 4 mg/kg-day

O=C1CCC(=O)N1c1cc(Cl)cc(Cl)c1 [N-(3,5-Dichlorophenyl)succinimide]
LOEL (Rattus norvegicus [3]; [10]): 100 mg/kg-day
NOEL (Rattus norvegicus [3]; [10]): 50 mg/kg-day

C[C@]12CCC(=O)C=C1CC[C@@H]1[C@@H]2CC[C@]2(C)C(=O)CC[C@@H]12 [4-Androstene-3,17-dione]
LEL (Rattus norvegicus [3]; [11]): 5 mg/day
LEL (Rattus norvegicus [3]; duration: 7 days, injection, subcutaneous): 5 mg/kg-day
LEL (Rattus norvegicus [3]; duration: 14 days, injection, subcutaneous): 2 mg/day
LEL (Rattus norvegicus [3]; duration: 36 days, injection, subcutaneous): 1 mg/kg-day

C#C[C@@]1(OC(=O)CC)C[C@@H]2CC[C@@H]3[C@H](CC[C@@]4(C)[C@H]3CC[C@]4(C#C)OC(=O)CC)[C@@]2(C)C1 [Anordrin]
LEL (Rattus norvegicus [3]; duration: 3 days, oral): 0.0025 mg/day

CCCCCCCCCCCCc1ccc(O)cc1 [4-Dodecylphenol]
LEL (Rattus norvegicus [3]; [11]): 40 mg/kg-day and 39.7 mg/kg-day

CCCCCCCCCCCCOC(=O)CCSCCC(=O)OCCCCCCCCCCCC [Propanoic acid, 3,3'-thiobis-, didodecyl ester]
LD50 (Mus musculus; acute, oral): > 2000 mg/kg
LD50 (Rattus norvegicus [1]; oral): > 2500 mg/kg
NOAEL (Rattus norvegicus [1]; reproduction developmental, duration: 13 weeks, oral, gavage, Sprague-Dawley): 350 mg/kg-day
NOAEL (Rattus norvegicus [1]; subchronic, duration: 13 weeks, oral, gavage, Sprague-Dawley): 350 mg/kg-day

C=CC(=C)C [Isoprene]
LC50 (Mus musculus; acute, inhalation): 180000 mg/m3 and 157000 mg/m3
NOAEL (Mus musculus; developmental, duration: 6 days, inhalation, CD-1/Swiss, generation: F1): 19500 mg/m3
LOAEL (Mus musculus; [12]): 195 mg/m3
NOAEL (Mus musculus; [12]): 27.9 mg/m3
NOAEL (Mus musculus; reproduction developmental, inhalation, B6C3F1): 195 mg/m3
LC50 (Rattus norvegicus [1]; inhalation): 180000 mg/m3 and 157000 mg/m3
NOAEL (Rattus norvegicus [1]; developmental, duration: 6 days, inhalation, Sprague-Dawley, generation: F1): 19500 mg/m3
NOAEL (Rattus norvegicus [1]; reproduction developmental, inhalation, Fischer 344): 195 mg/m3

CCCCCCCCCc1ccccc1O [n-Nonylphenol]
LOEL (Rattus norvegicus [3]; duration: 10 days, oral, Sprague-Dawley, active + Negative + Antiandrogenic + anti-androgenic + slight delay in timing of PPS, but only 33% of rats had complete separation by end of…): 100 mg/kg-day and 160 mg/kg-day
LEL (Rattus norvegicus [3]; [11]): 100 mg/kg-day

CC(=O)[C@@]1(O)CC[C@H]2[C@@H]3C[C@H](C)C4=CC(=O)CC[C@]4(C)[C@H]3CC[C@@]21C [Medroxyprogesterone]
LOEL (Rattus norvegicus [3]; [9]): 100 mg/kg-day
NOEL (Rattus norvegicus [3]; [9]): 20 mg/kg-day

NS(=O)(=O)C(F)(F)C(F)(F)C(F)(F)C(F)(F)C(F)(F)C(F)(F)C(F)(F)C(F)(F)F [Perfluorooctanesulfonamide]
NOAEL (Rattus norvegicus [4]; acute, duration: 1 days, gavage, M, Sprague-Dawley, Hepatic: No alterations in liver weight): 5 mg/kg-day

[Sn] [Tin]
NOAEL (Rattus norvegicus [4]; subchronic, duration: 13 weeks, diet, M/F, Wistar, hematological): 32 mg/kg-day
